Values quoted from earlier work, collected in PMC4394704, “Structures and functions of insect arylalkylamine N-acetyltransferase (iaaNAT); a key enzyme for physiological and behavioral switch in arthropods” (Frontiers in Physiology, 2015).
Where two headings read alike, the source gives them in different places.

Legend:
[1] = system: T1, bNAT (basic aaNAT, NATb); test: N-acetyltransferase activity of purified fraction; assay type: biochemical, Periplaneta americana; conditions: co-substrate acetyl CoA; pH not given
T1 construct: native, purified from midgut; 28 kDa by SDS-PAGE; pH optimum 9-10
Text: N-acetyltransferase activity of purified fraction on bNAT (basic aaNAT, NATb)

[2] = system: T2, aNAT (acidic aaNAT, NATa); test: N-acetyltransferase activity of purified fraction; assay type: biochemical, Periplaneta americana; conditions: co-substrate acetyl CoA; pH not given
T2 construct: native, purified from testicular accessory gland; 28 kDa by SDS-PAGE; pH optimum 5-6
Text: N-acetyltransferase activity of purified fraction on aNAT (acidic aaNAT, NATa)

[3] = target: T3, apaaNAT (aaNAT from A. pernyi) (Antheraea pernyi, UniProt A2SZ52); test: N-acetyltransferase activity assay, recombinant enzyme; assay type: biochemical; conditions: optimal pH 8.0 printed for the enzyme, read-out: apparent Km
T3 construct: cDNA expressed in Sf9 cells by baculovirus
T3 sequence (A2SZ52 1-261): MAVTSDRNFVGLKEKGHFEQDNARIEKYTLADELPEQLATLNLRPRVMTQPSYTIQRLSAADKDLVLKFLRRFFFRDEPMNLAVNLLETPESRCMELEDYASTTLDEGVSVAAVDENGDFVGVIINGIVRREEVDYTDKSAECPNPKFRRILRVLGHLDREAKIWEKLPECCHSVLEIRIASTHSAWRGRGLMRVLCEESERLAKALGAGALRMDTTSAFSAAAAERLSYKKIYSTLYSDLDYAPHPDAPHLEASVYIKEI

| Structure (SMILES) | Km [1] [µM] | Km [2] [µM] | Km ([3]; substrate inhibition above 0.03 mM with 0.11 mM acetyl CoA) [nM] | Km [3] [nM] |
| --- | --- | --- | --- | --- |
| NCCc1ccc(O)c(O)c1 [Dopamine] | 1520 | 25 |  |  |
| NC[C@H](O)c1ccc(O)cc1 [Octopamine] | 385 | 20 |  |  |
| NCCc1c[nH]c2ccc(O)cc12 [5HT] | 325 | 50 |  |  |
| NCCc1c[nH]c2ccccc12 [tryptamine] | 1330 | 25 | 3310 |  |
| NC[C@H](O)c1ccc(O)c(O)c1 [Norepinephrine] |  | 28.6 |  |  |
| CC(=O)SCCNC(=O)CCNC(=O)[C@H](O)C(C)(C)COP(=O)(O)OP(=O)(O)OC[C@H]1O[C@@H](n2cnc3c(N)ncnc32)[C@H](O)[C@@H]1OP(=O)(O)O [acetyl CoA] |  |  |  | 1420 |
| NCCc1ccc(O)cc1 [Tyramine] | 15.7 | 28.6 |  |  |
| COc1ccc2[nH]cc(CCN)c2c1 [Methoxy-TN] | 200 | 25 |  |  |
